In patent publication US8415469B2, “Compounds and methods for kinase modulation, and indications therefor” (Plexxikon Inc., priority 2005, dated 2013):

How the values were obtained:
Type in all cases: biochemical
Flt3 = target: T1, Flt3 (Homo sapiens, UniProt P36888); assay: Z'-Lyte FRET kinase assay (Invitrogen), Flt3; conditions: read-out: IC50, activity toward kinase Flt3
T1 construct: purchased Invitrogen (assay run by Invitrogen)
T1 sequence (P36888 27-993): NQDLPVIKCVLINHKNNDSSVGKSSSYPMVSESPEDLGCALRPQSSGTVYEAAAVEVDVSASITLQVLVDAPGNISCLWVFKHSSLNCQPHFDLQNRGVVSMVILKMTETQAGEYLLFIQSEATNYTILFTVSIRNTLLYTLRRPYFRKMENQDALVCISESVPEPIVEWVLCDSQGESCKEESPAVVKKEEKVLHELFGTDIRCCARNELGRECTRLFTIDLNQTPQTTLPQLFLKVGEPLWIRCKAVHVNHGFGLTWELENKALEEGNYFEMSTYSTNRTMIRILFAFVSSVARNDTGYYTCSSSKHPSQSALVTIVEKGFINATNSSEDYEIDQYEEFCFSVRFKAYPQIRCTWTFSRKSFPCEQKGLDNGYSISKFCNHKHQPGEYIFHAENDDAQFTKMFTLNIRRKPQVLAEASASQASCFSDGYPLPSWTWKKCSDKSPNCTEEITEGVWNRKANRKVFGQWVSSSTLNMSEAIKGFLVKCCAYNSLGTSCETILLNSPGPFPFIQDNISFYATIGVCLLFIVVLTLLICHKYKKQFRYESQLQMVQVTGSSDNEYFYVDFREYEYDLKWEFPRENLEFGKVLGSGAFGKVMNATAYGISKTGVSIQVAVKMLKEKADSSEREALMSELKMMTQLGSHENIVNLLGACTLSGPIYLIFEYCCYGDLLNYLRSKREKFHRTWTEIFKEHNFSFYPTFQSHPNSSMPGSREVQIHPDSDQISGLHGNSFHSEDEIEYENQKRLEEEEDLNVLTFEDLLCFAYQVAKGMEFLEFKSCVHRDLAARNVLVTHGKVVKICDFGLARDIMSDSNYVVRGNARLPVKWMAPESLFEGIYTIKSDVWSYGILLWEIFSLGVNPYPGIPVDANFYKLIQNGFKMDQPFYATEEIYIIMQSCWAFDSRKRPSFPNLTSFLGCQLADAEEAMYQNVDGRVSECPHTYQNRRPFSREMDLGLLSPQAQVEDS
Text: The effect of potential modulators of kinase activity can be measured in a variety of different assays known in the art. For example, direct radiometric, indirect FRET or AlphaScreen assays may be used to assess the level of phosphorylation of a substrate in the presence of test compounds in order to determine the inhibitory affect of the compound on the kinase. Invitrogen (Carlsbad, Calif.) uses a FRET based assay for Btk, EGFR, EphB2, Flt3, lrak4, Kdr, MAP2K1, MAPKAPK2, PDGFRB, PKC theta, Stk6 and Yes. For these assays, compounds of the invention were screened by Invitrogen using Z′-Lyte™ kinase assay.
Briefly, the Invitrogen kinase assay involves use of a specific peptide substrate optimized for each kinase, containing a fluorophore at each end that make up the FRET pair. The peptide sensitivity to proteolytic cleavage depends on phosphorylation of the peptide. Non-phosphorylated peptide is cleaved by a protease while peptide phosphorylated by the kinase is not cleaved. Cleavage of the peptide disrupts the FRET between the donor (coumarin) and acceptor (fluorescein) fluorophores, resulting in an increase in the ratio of donor emission to acceptor emission. The emission ratio of coumarin to fluorescein is used to assess the reaction progress. The extent of phosphorylation is determined from the emission ratio, which is low when the kinase is active (phosphorylated peptide is not cleaved, FRET pair connected) or higher for inhibited kinase (non-phosphorylated peptide is cleaved, FRET pair separated). Thus, the assay involves a kinase reaction in the presence of varying concentrations of a given compound, a development reaction with site specific protease, and detection of the fluorescent emission ratio of coumarin and fluorscein. […] Reaction conditions for each kinase are determined to provide optimal reaction times, incubation temperature, kinase and ATP concentrations. Test samples are made up in 1× kinase buffer (50 mM HEPES pH 7.5, 50 mM MgCl2, 5 mM EGTA, 0.05% BRIJ-35) and compound at desired concentration prepared in DMSO such that the final DMSO is 1%. […] Typically, assay plates are prepared to 10 μl final volume per sample, adding 2.5 μl of compound at 4× the desired concentration in 4% DMSO (serial dilution of compound provides concentration curve), 5 μl of the desired kinase mixed with Z′-LYTE™ peptide substrate (2× in 2× kinase buffer, final peptide at 2 μM), and 2.5 μl of 4×ATP solution. All kinase except for MAP2K1 were at 10 μM ATP in the kinase reaction, while MAP2K1 was at 100 μM. Samples are mixed and the kinase reaction is incubated 1 hour at room temperature, after which 5 μl of development solution is added and mixed. After incubation for another 1 hour at room temperature, 5 μl of stop reagent is added to each sample and mixed. The fluorescence signals are measured to determine the emission ratio.

Hck = Hck (Homo sapiens, UniProt P08631); assay: AlphaScreen kinase assay, Hck; conditions: read-out: IC50, activity toward kinase Hck
Hck, sequence (P08631 whole entry): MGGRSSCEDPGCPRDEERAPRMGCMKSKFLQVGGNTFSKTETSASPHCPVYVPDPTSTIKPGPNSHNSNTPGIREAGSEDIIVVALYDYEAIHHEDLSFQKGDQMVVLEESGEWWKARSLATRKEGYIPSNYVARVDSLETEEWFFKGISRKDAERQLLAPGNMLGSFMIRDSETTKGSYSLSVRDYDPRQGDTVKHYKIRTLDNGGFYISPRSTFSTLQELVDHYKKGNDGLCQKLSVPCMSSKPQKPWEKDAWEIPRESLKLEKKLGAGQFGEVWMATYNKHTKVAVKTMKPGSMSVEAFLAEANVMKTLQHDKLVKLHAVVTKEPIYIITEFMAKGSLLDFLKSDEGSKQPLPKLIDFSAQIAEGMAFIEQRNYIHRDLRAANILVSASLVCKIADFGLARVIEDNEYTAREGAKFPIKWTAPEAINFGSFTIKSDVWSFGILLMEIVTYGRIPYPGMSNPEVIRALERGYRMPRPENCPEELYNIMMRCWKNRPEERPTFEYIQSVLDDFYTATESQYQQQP
Procedure, shortened: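 Eight concentrations per compound (1:3 serial dilution of 20 mM DMSO stock) were tested. Read-out: AlphaScreen signal from phospho-antibody acceptor and streptavidin donor beads bound to biotinylated peptide substrate, reduced on kinase inhibition.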

IGF1R = IGF1R (Homo sapiens, UniProt P08069); assay: AlphaScreen kinase assay, IGF1R; conditions: read-out: IC50, activity toward kinase IGF1R
IGF1R, sequence (P08069 31-1367): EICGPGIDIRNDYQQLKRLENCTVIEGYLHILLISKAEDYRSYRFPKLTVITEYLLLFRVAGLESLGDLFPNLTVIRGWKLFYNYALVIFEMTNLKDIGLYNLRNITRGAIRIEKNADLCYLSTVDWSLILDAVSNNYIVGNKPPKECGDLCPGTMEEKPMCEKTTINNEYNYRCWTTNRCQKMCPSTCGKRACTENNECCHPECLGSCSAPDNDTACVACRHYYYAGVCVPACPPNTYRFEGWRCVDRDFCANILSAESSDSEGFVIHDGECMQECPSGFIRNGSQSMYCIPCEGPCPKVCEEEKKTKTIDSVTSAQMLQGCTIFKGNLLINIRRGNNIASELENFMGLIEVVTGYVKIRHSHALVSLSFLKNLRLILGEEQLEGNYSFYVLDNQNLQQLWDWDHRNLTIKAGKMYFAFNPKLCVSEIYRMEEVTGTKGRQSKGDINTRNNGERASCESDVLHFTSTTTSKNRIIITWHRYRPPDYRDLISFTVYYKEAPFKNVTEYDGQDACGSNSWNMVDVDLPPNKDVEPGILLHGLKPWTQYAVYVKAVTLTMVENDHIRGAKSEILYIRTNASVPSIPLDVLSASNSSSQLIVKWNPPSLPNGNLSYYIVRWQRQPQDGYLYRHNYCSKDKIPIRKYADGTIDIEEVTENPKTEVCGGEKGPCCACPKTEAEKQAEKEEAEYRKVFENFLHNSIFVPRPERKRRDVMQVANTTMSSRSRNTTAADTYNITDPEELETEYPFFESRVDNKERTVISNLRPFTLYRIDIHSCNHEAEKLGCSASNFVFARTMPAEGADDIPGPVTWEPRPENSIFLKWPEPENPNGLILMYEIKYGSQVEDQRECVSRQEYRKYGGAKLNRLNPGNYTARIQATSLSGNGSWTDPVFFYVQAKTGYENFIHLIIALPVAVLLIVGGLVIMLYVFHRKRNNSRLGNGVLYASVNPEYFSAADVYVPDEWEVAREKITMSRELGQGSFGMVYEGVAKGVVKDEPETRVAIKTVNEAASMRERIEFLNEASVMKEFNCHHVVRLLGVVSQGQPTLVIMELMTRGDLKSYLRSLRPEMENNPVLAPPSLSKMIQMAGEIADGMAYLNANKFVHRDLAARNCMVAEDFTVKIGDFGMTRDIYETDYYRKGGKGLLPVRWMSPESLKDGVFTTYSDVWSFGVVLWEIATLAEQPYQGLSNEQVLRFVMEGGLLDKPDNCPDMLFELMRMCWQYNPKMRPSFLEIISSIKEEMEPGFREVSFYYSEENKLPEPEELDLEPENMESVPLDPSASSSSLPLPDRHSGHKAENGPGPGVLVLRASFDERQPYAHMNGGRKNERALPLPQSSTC
Text: AlphaScreen assay was used to screen additional kinases. The assay is similarly dependent on the phosphorylation of a peptide substrate. In this assay, an antibody that recognizes phosphorylated substrate is bound to an acceptor bead. The peptide substrate is attached to biotin, which binds to a donor head that contains streptavidin. Thus phosphorylated substrate is bound by antibody and streptavidin, bringing the donor and acceptor heads into close proximity when kinase is not inhibited. The donor produces singlet oxygen which results in emission from the acceptor when they are in close proximity. Conversely, when kinase is inhibited, the donor and acceptor beads are not associated and the emission from the acceptor is reduced.
AlphaScreen assays were done using compounds dissolved in DMSO to a concentration of 20 mM. The compounds were diluted accordingly to the desired final concentrations in each sample well, using 1:3 serial dilution for a total of 8 concentration points. Plates were prepared such that each kinase reaction is 20 μl in 1× kinase buffer, 5% DMSO and 10 μM ATP. After incubation of the kinase reaction for 1 hour at room temperature, 5 μl of donor beads in stop buffer (50 mM EDTA in 1× kinase buffer) was added, the sample was mixed and incubated for 20 minutes at room temperature before adding 5 μl of acceptor beads in stop buffer. The samples were incubated for 60 minutes at room temperature and the signal per well was read on AlphaQuest reader.

Measured: IC50

OCCOc1ccc(F)c(Cc2c[nH]c3ncc(-c4cccnc4)cc23)c1F [Compound P-1394, 2-[2,4-Difluoro-3-(5-pyridin-3-yl-1H-pyrrolo[2,3-b]pyridin-3-ylmethyl)-phenoxy]-ethanol]
≤ 10 µM: all assays above
